GI50 and TGI data for 13 compounds are collected here from PubChem BioAssay (NCI).

Structures are written as SMILES.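 How tested: cells in 96-well plates exposed to compound for 48 hours at five concentrations. GI50 = concentration required for 50% inhibition of growth. At the TGI there is no net growth.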 A value given as a limit tells only on which side of the number the result lay.

Test systems include OVCAR-8 ovarian; 786-0 renal; HCT-15 colon; UACC-257 melanoma; CAKI-1 renal; TK-10 renal; ACHN renal; HL-60(TB) leukemia; NCI-H460 lung; HS 578T breast.
Holding throughout (test): NCI anticancer screen, dose series, 48 h

On to `CC(=O)OCC1OC([S-])C(OC(C)=O)C(OC(C)=O)C1OC(C)=O.CC[PH+](CC)CC.CC[PH+](CC)CC.[Au].[Au]` (stereo not drawn), for which the GI50 with OVCAR-8 ovarian is 0.371 µM; with 786-0 renal, 0.185 µM; in the test with HCT-15 colon it was 0.165 µM; in the test on UACC-257 melanoma, 0.214 µM; in the test on CAKI-1 renal, 0.292 µM; in the test with TK-10 renal it was 0.717 µM. Further, the GI50 in the test on ACHN renal is 1.01 µM. For the same compound, the TGI in the test with OVCAR-8 ovarian came to 1.52 µM; in the test with 786-0 renal it was 0.401 µM; in the test on HCT-15 colon, 0.452 µM; with UACC-257 melanoma, 0.937 µM; in the test on CAKI-1 renal it was 0.987 µM; in the test on TK-10 renal, 1.69 µM. The results for the TGI in the test with ACHN renal and with HL-60(TB) leukemia were 2.38 µM and 0.0214 µM, respectively.
Take `CCOC(=O)CCc1c(C)c2c(OC(C)=O)cc(OC(C)=O)cc2oc1=O`: the TGI in the test on NCI-H460 lung was 91.1 µM; in the test with OVCAR-8 ovarian it was above 100 µM; in the test with 786-0 renal, above 100 µM; with UACC-257 melanoma, above 100 µM; in the test with CAKI-1 renal it was above 100 µM; in the test with TK-10 renal, above 100 µM. In addition, the TGI in the test with ACHN renal and with HL-60(TB) leukemia was above 100 µM throughout.
Turning to `N#CC(/C(=N/NC(=O)C(=O)NN)C(=O)NC12CC3CC(CC(C3)C1)C2)c1ccccc1` (stereo not drawn), the TGI in the test with NCI-H460 lung, in the test with OVCAR-8 ovarian, in the test with 786-0 renal, with HCT-15 colon, in the test on UACC-257 melanoma and in the test with CAKI-1 renal was above 100 µM throughout. For the same compound, the TGI with TK-10 renal, in the test with ACHN renal and with HL-60(TB) leukemia was above 100 µM in each case.
`O=c1[nH]c2cc(Cl)ccc2n1C1CCN(CCCC(c2ccc(F)cc2)c2ccc(F)cc2)CC1`: the GI50 with NCI-H460 lung was 1.74 µM; in the test with OVCAR-8 ovarian it was 1.69 µM; in the test on 786-0 renal, 1.46 µM; with HCT-15 colon, 1.45 µM; in the test on UACC-257 melanoma, 1.56 µM; with CAKI-1 renal it was 0.488 µM. In addition, the values for the GI50 with TK-10 renal, with ACHN renal and in the test with HL-60(TB) leukemia were 1.94 µM, 1.54 µM and 2.97 µM, respectively. The TGI amounted to 3.14 µM with NCI-H460 lung; 3.56 µM in the test with OVCAR-8 ovarian; 2.79 µM with 786-0 renal; 2.76 µM with HCT-15 colon; 3.04 µM in the test on UACC-257 melanoma; 1.97 µM in the test on CAKI-1 renal. The results for the TGI in the test with TK-10 renal, in the test on ACHN renal and in the test on HL-60(TB) leukemia were 3.55 µM, 2.87 µM and 14.7 µM, respectively.
Turning to `O=C(CCC(=O)Nc1cccc(Cl)c1)CC(=O)c1ccc(Cl)cc1`, the TGI in the test on NCI-H460 lung, in the test with OVCAR-8 ovarian, in the test with 786-0 renal, in the test on HCT-15 colon, with UACC-257 melanoma and with CAKI-1 renal was above 100 µM in each case. For the same compound, the TGI with TK-10 renal, with ACHN renal and with HL-60(TB) leukemia was above 100 µM each time.
Consider `O=C(CN1CCCCC1)N1CCc2c([nH]c3ccccc23)C1c1cccnc1` (stereo not drawn), for which the TGI with NCI-H460 lung, with OVCAR-8 ovarian, in the test with 786-0 renal, with HCT-15 colon, in the test with UACC-257 melanoma and in the test with CAKI-1 renal was above 100 µM each time. The TGI in the test on TK-10 renal, in the test on ACHN renal and in the test with HL-60(TB) leukemia was above 100 µM each time.
`O=C(/C=C/c1c(O)ccc2ccccc12)c1ccc2ccccc2c1`: the TGI in the test with NCI-H460 lung, in the test with OVCAR-8 ovarian, in the test on 786-0 renal, in the test with HCT-15 colon, in the test on UACC-257 melanoma and in the test with CAKI-1 renal was above 100 µM each time. Moreover, the TGI in the test with TK-10 renal, in the test with ACHN renal and in the test with HL-60(TB) leukemia was above 100 µM throughout.
On to `NC1CCCC[C@H]1N.N[C@@H]1CCCC[C@@H]1N.O=C(P(=O)([O-])[O-])P(=O)([O-])[O-].[Pt+4].[Pt+4]`, for which the GI50 in the test on NCI-H460 lung is 20 µM; in the test with OVCAR-8 ovarian, above 100 µM; in the test with 786-0 renal it was above 100 µM; in the test with HCT-15 colon it was 63.8 µM; with UACC-257 melanoma it was above 100 µM; in the test with CAKI-1 renal it was above 100 µM. Besides, the GI50 is above 100 µM with TK-10 renal, 82.2 µM in the test on ACHN renal and 18.3 µM in the test with HL-60(TB) leukemia. The TGI in the test on NCI-H460 lung, with OVCAR-8 ovarian, in the test on 786-0 renal, with HCT-15 colon, in the test with UACC-257 melanoma and in the test on CAKI-1 renal was above 100 µM each time. The TGI in the test on TK-10 renal, in the test with ACHN renal and in the test on HL-60(TB) leukemia was above 100 µM each time.
With `CSC1(CC(=O)N(C)C)C(=O)Nc2ccccc21` (stereo not drawn), the TGI in the test on NCI-H460 lung, in the test with 786-0 renal, in the test on HCT-15 colon, in the test with UACC-257 melanoma, in the test on TK-10 renal and in the test with ACHN renal was above 100 µM in each case. In addition, in the test on HS 578T breast, the TGI was above 100 µM.
`CCOC(=O)C1=C(C)N(N)C(=S)NC1c1ccc(C)cc1` (stereo not drawn): the GI50 in the test with NCI-H460 lung is 24.4 µM; with OVCAR-8 ovarian, above 100 µM; in the test on 786-0 renal it was above 100 µM; in the test with HCT-15 colon, 9.1 µM; with UACC-257 melanoma, 36.2 µM; in the test on TK-10 renal, 40.2 µM. In addition, the GI50 in the test on ACHN renal is 22.6 µM. Also, the TGI in the test with NCI-H460 lung, with OVCAR-8 ovarian, with 786-0 renal, in the test on HCT-15 colon, with UACC-257 melanoma and in the test with TK-10 renal was above 100 µM each time. For the same compound, in the test on ACHN renal, the TGI was above 100 µM.
Take `CCOC(=O)[C@H](CCCNC(=O)OC(C)(C)C)NCc1ccc(OC)c(OC)c1`: the TGI with OVCAR-8 ovarian, with 786-0 renal, with UACC-257 melanoma, with CAKI-1 renal, in the test on TK-10 renal and with ACHN renal was above 100 µM throughout. For the same compound, the TGI in the test with HL-60(TB) leukemia is above 100 µM.
On to `O=S(O)CCCCSSCc1ccccc1CSSCCCCS(=O)O`, for which the TGI is above 100 µM in the test with NCI-H460 lung; 89.5 µM with OVCAR-8 ovarian; above 100 µM in the test with 786-0 renal; above 100 µM with HCT-15 colon; 18.2 µM in the test on UACC-257 melanoma; 81.8 µM in the test on CAKI-1 renal. In addition, the TGI with TK-10 renal was above 100 µM; in the test with ACHN renal it was 74 µM; in the test with HL-60(TB) leukemia, 36.2 µM.
As to `O=C(CSc1nnc(-c2ccccc2NC(=O)C(F)(F)F)c(=O)[nH]1)NC(=O)Nc1ccccc1`, the TGI in the test with NCI-H460 lung, in the test with OVCAR-8 ovarian, in the test on 786-0 renal, in the test with HCT-15 colon, in the test on CAKI-1 renal and with TK-10 renal was above 100 µM each time.
